Tests used:
[1] = water
[2] = tested on: MALME-3M melanoma cells; test: NCI human tumor cell line panel growth inhibition; assay type: cell-based; conditions: read-out: Log10 GI50 (converted)
[3] = tested on: OVCAR-5 ovarian cancer cells; test: NCI human tumor cell line panel growth inhibition; assay type: cell-based; conditions: Homo sapiens, read-out: Log10 GI50 (converted)
[4] = tested on: OVCAR-3 ovarian cancer cells; test: NCI human tumor cell line panel growth inhibition; assay type: cell-based; conditions: Homo sapiens; OVCAR-3, ovarian cancer; read-out: Log10 GI50 (converted)
[5] = tested on: UACC-257 melanoma cells; test: NCI human tumor cell line panel growth inhibition; assay type: cell-based; conditions: Homo sapiens, read-out: Log10 GI50 (converted)
[6] = tested on: HCT-15 colon cancer cells; test: NCI human tumor cell line panel growth inhibition; assay type: cell-based; conditions: Homo sapiens, read-out: Log10 GI50 (converted)
[7] = tested on: NCI-H23 lung cancer cells; test: NCI human tumor cell line panel growth inhibition; assay type: cell-based; conditions: read-out: Log10 GI50 (converted)
[8] = tested on: TK-10 renal cancer cells; test: NCI human tumor cell line panel growth inhibition; assay type: cell-based; conditions: Homo sapiens, read-out: Log10 GI50 (converted)
[9] = tested on: CAKI-1 renal cancer cells; test: NCI human tumor cell line panel growth inhibition; assay type: cell-based; conditions: Homo sapiens; CAKI-1, renal cancer; read-out: Log10 GI50 (converted)
[10] = tested on: U251 CNS cancer cells; test: NCI human tumor cell line panel growth inhibition; assay type: cell-based; conditions: Homo sapiens, U-251, read-out: Log10 GI50 (converted)
[11] = tested on: OVCAR-8 ovarian cancer cells; test: NCI human tumor cell line panel growth inhibition; assay type: cell-based; conditions: Homo sapiens, read-out: Log10 GI50 (converted)
Protocol: The first screen measures the cytotoxicity against a panel of sixty different human tumor cell lines. This assay provides data regarding the general cytotoxicity of an individual compound.
(§1) The length of a bar is indicative of differential cytotoxicity against a specific type of tumor cells or tumor panels.
(§2) The antitumor cytotoxicity of the thiophene compounds tested in the first two in vitro assays was measured by a microculture assay using either 3-(4,5-dimethylthiazol-2-yl)-2,5-diphenyltetrazolium bromide (MTT) or sulforhodamine B (SRB). [M. R. Boyd in "Principles and Practices of Oncology," V. T. DeVita, Jr., S. Hellman and S. A. Rosenberg (Eds.), Vol. 3, PPO Updates, Number 10, 1989.] This assay has an advantage over in vivo assay in that results are obtained within a week as opposed to several months. The assay was carried out in 96-well microtiter plates. The MTT assay is based on the production of a dark blue formazan product by dehydrogenase in the mitochondria of live tumor cells after exposure to drug for 6 days [M. C. Alley, D. A. Scudiero, A. Monks, M. L. Hursey, M. J. Czerwinski, D. L. Fine, B. J. Abbott, J. G. Mayo, R. H. Shoemaker and M. R. Boyd, Cancer Res., 48, 589, 1988.] Thus, only live cells are stained and can be measured at 570 nm. The SRB assay is based on the binding of the anionic group to the basic amino acid residues of cellular proteins after exposure of tumor cells to drug for 2 days [P. Skehan, R. Storeng, D. Scudiero, A. Monks, J. McMahon, D. Vistica, J. T. Warren, H. Bohesch, S. Kenney and M. R. Boyd, J. Nat. Cancer Inst., 82, 1107, 1990.] Thus, the total protein (viability) can be measured at 564 nm.

[12] = tested on: A-498 renal cancer cells; test: NCI human tumor cell line panel growth inhibition; assay type: cell-based; conditions: Homo sapiens, A498, read-out: Log10 GI50 (converted)
[13] = tested on: SNB-75 CNS cancer cells; test: NCI human tumor cell line panel growth inhibition; assay type: cell-based; conditions: Homo sapiens, read-out: Log10 GI50 (converted)
[14] = tested on: LOX IMVI melanoma cells; test: NCI human tumor cell line panel growth inhibition; assay type: cell-based; conditions: read-out: Log10 GI50 (converted)
[15] = tested on: COLO-205 colon cancer cells; test: NCI human tumor cell line panel growth inhibition; assay type: cell-based; conditions: Homo sapiens; COLO-205, colon cancer; read-out: Log10 GI50 (converted)
[16] = tested on: M-14 melanoma cells; test: NCI human tumor cell line panel growth inhibition; assay type: cell-based; conditions: M14, read-out: Log10 GI50 (converted)
[17] = tested on: IGROV-1 ovarian cancer cells; test: NCI human tumor cell line panel growth inhibition; assay type: cell-based; conditions: Homo sapiens, read-out: Log10 GI50 (converted)
[18] = tested on: BT-549 breast cancer cells; test: NCI human tumor cell line panel growth inhibition; assay type: cell-based; conditions: read-out: Log10 GI50 (converted)
Description: (§3) The cytotoxic activity of the present polythiophene compounds have been measured utilizing three different assays or screens. The first screen measures the cytotoxicity against a panel of sixty different human tumor cell lines. This assay provides data regarding the general cytotoxicity of an individual compound. In particular this type of assay is useful in identifying compounds which have enhanced cytotoxic activity against slow growing tumors as compared to faster growing tumor cells such as leukemia tumor cell lines. The identification of such compounds is critical since previously identified antitumor agents have low cytotoxic activity against slower growing tumors. […] The specificity of a cytotoxic compound for tumor cell lines relative to normal cells is an important characteristic of an effective antitumor agent.
as §1, §2

[19] = tested on: SF-539 CNS cancer cells; test: NCI human tumor cell line panel growth inhibition; assay type: cell-based; conditions: read-out: Log10 GI50 (converted)
Description: as §3, §1, §2

[20] = tested on: SK-MEL-28 melanoma cells; test: NCI human tumor cell line panel growth inhibition; assay type: cell-based; conditions: read-out: Log10 GI50 (converted)
Description: as §3, §1, §2

[21] = tested on: HOP-92 lung cancer cells; test: NCI human tumor cell line panel growth inhibition; assay type: cell-based; conditions: Homo sapiens, read-out: Log10 GI50 (converted)
Description: as §3, §1, §2

[22] = tested on: MDA-MB-231/ATCC breast cancer cells; test: NCI human tumor cell line panel growth inhibition; assay type: cell-based; conditions: read-out: Log10 GI50 (converted)
Description: as §3, §1, §2

[23] = tested on: DU-145 prostate cancer cells; test: NCI human tumor cell line panel growth inhibition; assay type: cell-based; conditions: read-out: Log10 GI50 (converted)
Description: as §3, §1, §2

[24] = tested on: MDA-N breast cancer cells; test: NCI human tumor cell line panel growth inhibition; assay type: cell-based; conditions: read-out: Log10 GI50 (converted)
Description: as §3, §1, §2

[25] = tested on: MCF7/ADR-RES breast cancer cells; test: NCI human tumor cell line panel growth inhibition; assay type: cell-based; conditions: read-out: Log10 GI50 (converted)
Description: as §3, §1, §2

[26] = tested on: KM12 colon cancer cells; test: NCI human tumor cell line panel growth inhibition; assay type: cell-based; conditions: Homo sapiens, read-out: Log10 GI50 (converted)
Description: as §3, §1, §2

[27] = tested on: MDA-MB-435 breast cancer cells; test: NCI human tumor cell line panel growth inhibition; assay type: cell-based; conditions: read-out: Log10 GI50 (converted)
Description: as §3, §1, §2

[28] = tested on: HS 578T breast cancer cells; test: NCI human tumor cell line panel growth inhibition; assay type: cell-based; conditions: read-out: Log10 GI50 (converted)
Description: as §3, §1, §2

[29] = tested on: SK-MEL-5 melanoma cells; test: NCI human tumor cell line panel growth inhibition; assay type: cell-based; conditions: read-out: Log10 GI50 (converted)
Description: as §3, §1, §2

[30] = tested on: OVCAR-4 ovarian cancer cells; test: NCI human tumor cell line panel growth inhibition; assay type: cell-based; conditions: Homo sapiens, read-out: Log10 GI50 (converted)
Description: as §3, §1, §2

[31] = tested on: MCF7 breast cancer cells; test: NCI human tumor cell line panel growth inhibition; assay type: cell-based; conditions: read-out: Log10 GI50 (converted)
Description: as §3, §1, §2

[32] = tested on: PC-3 prostate cancer cells; test: NCI human tumor cell line panel growth inhibition; assay type: cell-based; conditions: read-out: Log10 GI50 (converted)
Description: as §3, §1, §2

[33] = tested on: HCC-2998 colon cancer cells; test: NCI human tumor cell line panel growth inhibition; assay type: cell-based; conditions: Homo sapiens, read-out: Log10 GI50 (converted)
[34] = tested on: T-47D breast cancer cells; test: NCI human tumor cell line panel growth inhibition; assay type: cell-based; conditions: T47D, read-out: Log10 GI50 (converted)
Protocol: The assay was carried out in 96-well microtiter plates. The MTT assay is based on the production of a dark blue formazan product by dehydrogenase in the mitochondria of live tumor cells after exposure to drug for 6 days [M. C. […] The SRB assay is based on the binding of the anionic group to the basic amino acid residues of cellular proteins after exposure of tumor cells to drug for 2 days [P. Skehan, R. Storeng, D. Scudiero, A. Monks, J. McMahon, D. Vistica, J. T. Warren, H. Bohesch, S. Kenney and M. R. Boyd, J. Nat.

[35] = tested on: HCT-116 colon cancer cells; test: NCI human tumor cell line panel growth inhibition; assay type: cell-based; conditions: Homo sapiens, read-out: Log10 GI50 (converted)
[36] = tested on: SK-MEL-2 melanoma cells; test: NCI human tumor cell line panel growth inhibition; assay type: cell-based; conditions: read-out: Log10 GI50 (converted)
[37] = tested on: ACHN renal cancer cells; test: NCI human tumor cell line panel growth inhibition; assay type: cell-based; conditions: read-out: Log10 GI50 (converted)
[38] = tested on: NCI-H322M lung cancer cells; test: NCI human tumor cell line panel growth inhibition; assay type: cell-based; conditions: Homo sapiens, read-out: Log10 GI50 (converted)
[39] = tested on: SF-295 CNS cancer cells; test: NCI human tumor cell line panel growth inhibition; assay type: cell-based; conditions: read-out: Log10 GI50 (converted)
[40] = tested on: UACC-62 melanoma cells; test: NCI human tumor cell line panel growth inhibition; assay type: cell-based; conditions: Homo sapiens, read-out: Log10 GI50 (converted)
[41] = tested on: SNB-19 CNS cancer cells; test: NCI human tumor cell line panel growth inhibition; assay type: cell-based; conditions: Homo sapiens, read-out: Log10 GI50 (converted)
[42] = tested on: SF-268 CNS cancer cells; test: NCI human tumor cell line panel growth inhibition; assay type: cell-based; conditions: read-out: Log10 GI50 (converted)
[43] = tested on: NCI-H460 lung cancer cells; test: NCI human tumor cell line panel growth inhibition; assay type: cell-based; conditions: Homo sapiens, read-out: Log10 GI50 (converted)
[44] = tested on: RXF-393 renal cancer cells; test: NCI human tumor cell line panel growth inhibition; assay type: cell-based; conditions: Homo sapiens, read-out: Log10 GI50 (converted)
[45] = tested on: NCI-H226 lung cancer cells; test: NCI human tumor cell line panel growth inhibition; assay type: cell-based; conditions: Homo sapiens, read-out: Log10 GI50 (converted)
[46] = tested on: HT29 colon cancer cells; test: NCI human tumor cell line panel growth inhibition; assay type: cell-based; conditions: Homo sapiens, HT-29, read-out: Log10 GI50 (converted)

With `NCc1ccc(-c2ccc(-c3cccs3)s2)s1` [NSC Code 652866, aminomethylterthiophene] the “aminomethylterthiophene dissolved by 1 mL of H2O (as cyclodextrin complex)” value [1] was “up to 77 mg”.

`OCc1csc(-c2ccc(-c3ccc(CO)s3)s2)c1` [drawing 38] gave a GI50 [2] greater than 10 µM, a GI50 [3] of 0.126 µM and a GI50 [4] of 0.0692 µM. The GI50 [5] was 0.038 µM, the GI50 [6] was greater than 10 µM and the GI50 [7] was greater than 10 µM. The GI50 [8] was 0.0794 µM, the GI50 [9] was 0.0251 µM and the GI50 [10] was 5.62 µM. The GI50 [11] was greater than 10 µM, the GI50 [12] was 0.0158 µM and the GI50 [13] was 2 µM. The GI50 [14] was greater than 10 µM, the GI50 [15] was 0.191 µM and the GI50 [16] was greater than 10 µM. For the same compound, the GI50 [17] was 0.145 µM, the GI50 [18] was greater than 10 µM and the GI50 [19] was greater than 10 µM. For the same compound, the GI50 [20] was greater than 10 µM, the GI50 [21] was 9.33 µM and the GI50 [22] was greater than 10 µM. The GI50 [23] was greater than 10 µM, the GI50 [24] was 9.55 µM and the GI50 [25] was greater than 10 µM. It also gave a GI50 [26] greater than 10 µM, a GI50 [27] of 4.37 µM and a GI50 [28] of 7.76 µM. It also gave a GI50 [29] greater than 10 µM, a GI50 [30] of 0.302 µM and a GI50 [31] of 0.138 µM. For the same compound, the GI50 [32] was greater than 10 µM, the GI50 [33] was 5.89 µM and the GI50 [34] was 0.224 µM. It also gave a GI50 [35] of 0.107 µM, a GI50 [36] greater than 10 µM and a GI50 [37] greater than 10 µM. For the same compound, the GI50 [38] was 4.27 µM, the GI50 [39] was greater than 10 µM and the GI50 [40] was 0.182 µM. For the same compound, the GI50 [41] was greater than 10 µM, the GI50 [42] was greater than 10 µM and the GI50 [43] was 0.0389 µM. It also gave a GI50 [44] greater than 10 µM, a GI50 [45] of 0.0141 µM and a GI50 [46] of 0.234 µM.

From patent publication US5741811A, “Polythiophene anti-tumor agents” (Purdue Research Foundation, priority 1996, dated 1998)
